The values below come from PubChem BioAssay (NCI).

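Following 48 hours of exposure in 96-well plates, responses at five concentrations were used to interpolate endpoints linearly. GI50 marks 50% less growth. TGI is the concentration that stops growth completely.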 Where only a bound is given, the exact number is not on record here.

Among the test systems are DMS 273 small cell lung; SK-MEL-2 melanoma; EKVX NSCLC; MALME-3M melanoma; XF 498 CNS; DMS 114 small cell lung; SR leukemia; RPMI-8226 leukemia; KM12 colon; HS 578T breast.
Assay in all cases: DTP human tumour cell line panel, 48 h

For orientation: TGI means the concentration giving total growth inhibition. A low value points to greater sensitivity of the cells. What is called GI50 is the concentration that inhibits growth by half.

Regarding `CCOC(=O)CCn1[nH]c(=O)c(Cl)c(Cl)c1=O`, the TGI in the test with DMS 273 small cell lung, in the test with SK-MEL-2 melanoma, in the test with EKVX NSCLC, with MALME-3M melanoma, with XF 498 CNS and in the test on DMS 114 small cell lung was over 100 µM throughout.
As for `CC(C)c1cc2c(O)c(c1)Cc1cc(C(C)C)cc(c1O)Cc1cc(C(C)C)cc(c1O)Cc1cc(C(C)C)cc(c1O)C2`, the TGI with DMS 273 small cell lung, with SK-MEL-2 melanoma, with SR leukemia, with EKVX NSCLC, with MALME-3M melanoma and with RPMI-8226 leukemia was over 100 µM each time. Further, the TGI in the test on XF 498 CNS, in the test on DMS 114 small cell lung and in the test with KM12 colon was over 100 µM in each case.
With `c1cc2c(ncc3cscc32)s1`, the TGI in the test on DMS 273 small cell lung, in the test on SK-MEL-2 melanoma, in the test with SR leukemia, in the test with EKVX NSCLC, in the test on HS 578T breast and in the test with MALME-3M melanoma was over 100 µM in each case. Further, the TGI in the test on RPMI-8226 leukemia, in the test on XF 498 CNS, with DMS 114 small cell lung and in the test on KM12 colon was over 100 µM each time.
In the case of `COC(=O)C(=O)C(C(=O)C=C(C)C)C(=O)C(=O)Nc1ccc(C)cc1C` (configuration not stated), the TGI with DMS 273 small cell lung, in the test with SK-MEL-2 melanoma, in the test on SR leukemia, with EKVX NSCLC, with MALME-3M melanoma and in the test on RPMI-8226 leukemia was over 100 µM throughout. Besides, the TGI in the test on XF 498 CNS, in the test on DMS 114 small cell lung and in the test with KM12 colon was over 100 µM each time.
On to `Cc1[nH]c2ccccc2c1C1Cc2ccccc2N1C(=O)/C(Cl)=C/c1ccccc1` (configuration not stated), for which the TGI in the test on DMS 273 small cell lung, with SK-MEL-2 melanoma, with SR leukemia, in the test on EKVX NSCLC, in the test on MALME-3M melanoma and with RPMI-8226 leukemia was over 100 µM each time. Besides, the TGI in the test on XF 498 CNS, in the test on DMS 114 small cell lung and with KM12 colon was over 100 µM throughout.
Take `COC(=O)C(=Cc1cc(OC)c(OC)c(OC)c1-c1cc2c(cc1C(C)=O)OCO2)C(=O)OC`: the total growth inhibition concentration (TGI) is 69 µM in the test with DMS 273 small cell lung; 61.7 µM in the test with SK-MEL-2 melanoma; over 211 µM with SR leukemia; over 211 µM in the test on EKVX NSCLC; 78.3 µM in the test with MALME-3M melanoma; over 211 µM in the test on RPMI-8226 leukemia. The TGI in the test with XF 498 CNS turned out to be 59.7 µM; in the test on DMS 114 small cell lung it was 99.4 µM; with KM12 colon it was 70.4 µM.
As to `CN(C)C(c1ccccc1)C(O)c1ccccc1` (configuration not stated), the TGI with DMS 273 small cell lung, in the test with SK-MEL-2 melanoma, in the test with EKVX NSCLC, with MALME-3M melanoma, in the test with RPMI-8226 leukemia and with XF 498 CNS was over 100 µM in each case. The TGI with DMS 114 small cell lung and in the test with KM12 colon was over 100 µM each time.
As to `OC/C=C(\I)CCCOCOCc1ccccc1`, the TGI is 44.4 µM in the test on DMS 273 small cell lung; 47.7 µM with SK-MEL-2 melanoma; over 100 µM in the test on EKVX NSCLC; 47.5 µM with RPMI-8226 leukemia; 45.8 µM with XF 498 CNS; 69 µM in the test with DMS 114 small cell lung. In the test on KM12 colon, this compound registered a TGI of over 100 µM.
On to `CCOC(=O)C(Cc1cn(S(=O)(=O)c2ccccc2)c2ccccc12)(NC(C)=O)C(=O)OCC`, for which the TGI is over 100 µM in the test on DMS 273 small cell lung; 80.3 µM with SK-MEL-2 melanoma; 69.8 µM in the test with SR leukemia; over 100 µM with MALME-3M melanoma; 44.7 µM in the test on RPMI-8226 leukemia; over 100 µM in the test with XF 498 CNS. The results for the TGI with DMS 114 small cell lung and in the test on KM12 colon were 80.4 µM and over 100 µM, respectively.
Consider `CS(=O)(=O)c1cc(=O)c2ccccc2s1`, for which the TGI was determined as 20.7 µM in the test on DMS 273 small cell lung; 30.4 µM with SK-MEL-2 melanoma; 8.09 µM in the test with SR leukemia; 21.4 µM with EKVX NSCLC; 68.8 µM in the test with HS 578T breast; 3.5 µM with MALME-3M melanoma. Moreover, the TGI with XF 498 CNS stood at 4.4 µM; in the test with DMS 114 small cell lung it was 11.2 µM; in the test with KM12 colon, 32.3 µM.
For `C/C(=C1/CCC/C(=C(/C)c2ccccc2)C1=O)c1ccccc1`, the TGI with DMS 273 small cell lung was over 100 µM; in the test with SK-MEL-2 melanoma, 38.7 µM; in the test on SR leukemia it was 43.5 µM; in the test with EKVX NSCLC, over 100 µM; with MALME-3M melanoma, 46.7 µM; in the test on RPMI-8226 leukemia, over 100 µM. Moreover, the TGI with XF 498 CNS was 82 µM; in the test with DMS 114 small cell lung it was 70.3 µM; in the test on KM12 colon, over 100 µM.
In the case of `CC(=O)N1C/C(=C\c2ccc(N(C)C)cc2)C(=O)/C(=C/c2ccc(N(C)C)cc2)C1`, the TGI in the test with DMS 273 small cell lung was over 100 µM; in the test with SR leukemia it was over 100 µM; in the test with MALME-3M melanoma, over 100 µM; in the test on RPMI-8226 leukemia, over 100 µM; in the test with XF 498 CNS, over 100 µM; in the test on DMS 114 small cell lung, 60.1 µM. Further, the TGI in the test with KM12 colon was over 100 µM.
For the compound `c1cc[c]([Pb]([c]2ccccc2)[c]2ccccc2)cc1`, the GI50 is 10.4 µM in the test with DMS 273 small cell lung; 6.04 µM in the test on SK-MEL-2 melanoma; 14.4 µM in the test on SR leukemia; 25.2 µM in the test on EKVX NSCLC; 16.7 µM in the test on MALME-3M melanoma; 14.5 µM in the test with RPMI-8226 leukemia. The values for the GI50 in the test with XF 498 CNS, with DMS 114 small cell lung and with KM12 colon were 23.9 µM, 1.92 µM and 23.4 µM, respectively. In addition, the TGI with DMS 273 small cell lung is 27.8 µM; in the test with SK-MEL-2 melanoma it was 24 µM; with SR leukemia, 74.6 µM; in the test on EKVX NSCLC, 76.8 µM; in the test on MALME-3M melanoma, 36.6 µM; in the test with RPMI-8226 leukemia, 90 µM. The TGI in the test with XF 498 CNS was 42.7 µM; in the test on DMS 114 small cell lung it was 12.7 µM; in the test with KM12 colon it was over 100 µM.
With `Clc1ccc(-c2c(C3=NCCCN3)nnn2-c2ccc(Cl)cc2)cc1`, the TGI in the test with DMS 273 small cell lung was over 100 µM; with SK-MEL-2 melanoma, 34.6 µM; with SR leukemia it was 40.7 µM; in the test with EKVX NSCLC it was over 100 µM; in the test on HS 578T breast it was over 59.5 µM; with MALME-3M melanoma, 33 µM. The TGI with RPMI-8226 leukemia was 62.4 µM; in the test with XF 498 CNS, 53.5 µM; with DMS 114 small cell lung it was 49.5 µM; in the test on KM12 colon, over 77.5 µM.
As for `CCc1ccc(Nc2ccc([N+](=O)[O-])cc2[N+](=O)[O-])cc1`, the total growth inhibition concentration (TGI) with DMS 273 small cell lung, in the test on SK-MEL-2 melanoma, in the test on EKVX NSCLC, in the test with MALME-3M melanoma, in the test with RPMI-8226 leukemia and with XF 498 CNS was over 100 µM throughout. Also, the TGI in the test on DMS 114 small cell lung and in the test on KM12 colon was over 100 µM throughout.
With `COc1ccc(/C(Cl)=C(\C=O)c2ccc([N+](=O)[O-])cc2)cc1`, the TGI in the test with DMS 273 small cell lung was 58.7 µM; in the test on SK-MEL-2 melanoma, 41.3 µM; in the test with EKVX NSCLC, over 68.8 µM; with MALME-3M melanoma it was 68.1 µM; in the test with RPMI-8226 leukemia it was 8 µM; in the test with XF 498 CNS, 40.4 µM. The TGI with DMS 114 small cell lung came out at 68.5 µM; in the test on KM12 colon, 11.4 µM.
On to `FC(F)(F)c1nc(-c2ccccc2)oc1Sc1nnc(Sc2oc(-c3ccccc3)nc2C(F)(F)F)s1`, for which the TGI in the test with DMS 273 small cell lung was over 100 µM; with SK-MEL-2 melanoma it was over 100 µM; in the test with SR leukemia, 41 µM; with EKVX NSCLC, over 80.7 µM; with MALME-3M melanoma, 34.4 µM; in the test with RPMI-8226 leukemia, over 74.6 µM. Also, the TGI is 26.7 µM with XF 498 CNS, 21.7 µM in the test on DMS 114 small cell lung and over 100 µM in the test with KM12 colon.
For the compound `CC(C)c1ccc(C(c2ccc(OCC(=O)O)cc2)c2ccc(C(C)C)cc(=O)c2O)c(O)c(=O)c1`, the TGI in the test on DMS 273 small cell lung is 11.2 µM; with EKVX NSCLC, over 100 µM; in the test on RPMI-8226 leukemia, 47 µM; in the test on XF 498 CNS it was 9.95 µM; with DMS 114 small cell lung, 8.25 µM.
For `COc1cccc(/C=C2\C(=O)N(C(=O)c3ccc(NC(C)=O)cc3)N=C2C)c1`, the TGI in the test on DMS 273 small cell lung, in the test with SK-MEL-2 melanoma, with EKVX NSCLC, in the test on MALME-3M melanoma, in the test with XF 498 CNS and in the test on DMS 114 small cell lung was over 100 µM in each case.
Consider `COC(=O)c1cc(C)c(C)c2c1NC(=O)CNC2=O`, for which the TGI with DMS 273 small cell lung, in the test with SK-MEL-2 melanoma, in the test with SR leukemia, in the test on EKVX NSCLC, with RPMI-8226 leukemia and in the test with XF 498 CNS was over 100 µM throughout. In addition, the TGI with DMS 114 small cell lung and in the test on KM12 colon was over 100 µM each time.
